One block for each compound: values may come before it.
Tests used:
[1] = molecular target: Bone morphogenetic protein receptor type-1A (Homo sapiens, UniProt P36894); details: at 10 µM
[2] = molecular target: Serine/threonine-protein kinase N1 (Homo sapiens, UniProt Q16512); test: Selectivity interaction (Ambit KINOMEscan and KiNATiv profiling in Jurkat cells) EUB0000090b PKN1; assay type: cell-based; details: at 1 µM
[3] = molecular target: RAC-alpha serine/threonine-protein kinase (Homo sapiens, UniProt P31749); test: Selectivity interaction (KinomeScan (DiscoverX)) EUB0000618a AKT1; details: at 10 µM
[4] = molecular target: Mitogen-activated protein kinase 9 (Homo sapiens, UniProt P45984); test: Selectivity interaction (ActivX KiNativ screen (kinase selectivity in THP-1 cell lysates)) EUB0000639a MAPK9; assay type: subcellular; details: lysate, at 0.2 µM
[5] = molecular target: T1, Serine/threonine-protein kinase Nek9 (Homo sapiens) (UniProt Q8TD19); test: Selectivity interaction (ActivX KiNativ screen (kinase selectivity in THP-1 cell lysates)) EUB0000639a NEK9; assay type: subcellular; details: lysate, at 5 µM
T1 sequence (whole entry): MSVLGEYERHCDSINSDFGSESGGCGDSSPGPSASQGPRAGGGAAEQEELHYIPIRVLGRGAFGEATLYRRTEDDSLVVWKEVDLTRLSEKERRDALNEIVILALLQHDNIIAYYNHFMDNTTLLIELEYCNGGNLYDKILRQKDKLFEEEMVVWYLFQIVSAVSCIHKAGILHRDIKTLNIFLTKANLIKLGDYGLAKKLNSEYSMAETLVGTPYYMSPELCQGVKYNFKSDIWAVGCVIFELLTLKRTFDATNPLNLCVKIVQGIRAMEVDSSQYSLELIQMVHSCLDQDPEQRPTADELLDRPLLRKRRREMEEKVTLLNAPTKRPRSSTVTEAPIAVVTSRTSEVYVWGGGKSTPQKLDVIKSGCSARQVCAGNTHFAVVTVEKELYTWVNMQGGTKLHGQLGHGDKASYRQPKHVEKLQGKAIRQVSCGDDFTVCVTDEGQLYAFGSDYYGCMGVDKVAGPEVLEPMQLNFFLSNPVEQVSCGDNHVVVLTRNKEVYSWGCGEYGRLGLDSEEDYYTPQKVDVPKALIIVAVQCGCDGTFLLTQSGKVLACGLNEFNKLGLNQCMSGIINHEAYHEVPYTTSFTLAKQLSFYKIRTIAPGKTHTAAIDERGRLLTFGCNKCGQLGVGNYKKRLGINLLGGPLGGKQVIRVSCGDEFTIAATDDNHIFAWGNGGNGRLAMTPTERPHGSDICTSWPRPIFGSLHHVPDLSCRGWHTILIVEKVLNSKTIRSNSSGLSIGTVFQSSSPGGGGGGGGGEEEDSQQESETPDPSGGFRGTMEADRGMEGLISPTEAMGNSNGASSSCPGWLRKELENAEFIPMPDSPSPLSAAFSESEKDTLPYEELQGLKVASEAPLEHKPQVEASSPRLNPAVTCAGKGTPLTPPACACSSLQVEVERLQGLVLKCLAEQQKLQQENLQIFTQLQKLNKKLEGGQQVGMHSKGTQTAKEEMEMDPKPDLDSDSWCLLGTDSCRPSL

[6] = molecular target: Calcium/calmodulin-dependent protein kinase type II subunit delta (Homo sapiens) (UniProt Q13557); test: Selectivity interaction (ActivX KiNativ screen (kinase selectivity in THP-1 cell lysates)) EUB0000639a CAMK2D; assay type: subcellular; details: lysate, at 0.01 µM
[7] = molecular target: T2, Inhibitor of nuclear factor kappa-B kinase subunit epsilon (Homo sapiens) (UniProt Q14164); test: Selectivity interaction (ActivX KiNativ screen (kinase selectivity in THP-1 cell lysates)) EUB0000639a IKBKE; assay type: subcellular; details: lysate, at 0.04 µM
T2 sequence (whole entry): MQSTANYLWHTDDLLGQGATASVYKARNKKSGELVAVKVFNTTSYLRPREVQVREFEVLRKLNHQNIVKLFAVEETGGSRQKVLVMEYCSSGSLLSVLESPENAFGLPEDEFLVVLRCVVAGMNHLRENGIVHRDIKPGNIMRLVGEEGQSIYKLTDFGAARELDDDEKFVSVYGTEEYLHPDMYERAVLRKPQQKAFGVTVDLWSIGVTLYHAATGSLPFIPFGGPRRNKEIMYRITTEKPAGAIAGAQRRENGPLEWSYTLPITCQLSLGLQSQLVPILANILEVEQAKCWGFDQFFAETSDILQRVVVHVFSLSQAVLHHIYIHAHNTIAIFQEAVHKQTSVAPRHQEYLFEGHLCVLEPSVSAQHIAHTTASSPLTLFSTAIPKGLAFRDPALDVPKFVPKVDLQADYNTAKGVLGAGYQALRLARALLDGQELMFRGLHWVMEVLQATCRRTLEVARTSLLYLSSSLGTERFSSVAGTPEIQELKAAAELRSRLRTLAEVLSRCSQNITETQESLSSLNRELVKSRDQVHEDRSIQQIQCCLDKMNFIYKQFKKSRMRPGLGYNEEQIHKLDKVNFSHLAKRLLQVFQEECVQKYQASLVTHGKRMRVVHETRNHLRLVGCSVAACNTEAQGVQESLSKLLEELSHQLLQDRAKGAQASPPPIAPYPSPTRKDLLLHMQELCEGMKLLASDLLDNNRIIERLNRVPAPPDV

[8] = molecular target: Non-receptor tyrosine-protein kinase TYK2 (Homo sapiens, UniProt P29597); test: Selectivity interaction (ProQinase) EUB0000171b TYK2
Non-receptor tyrosine-protein kinase TYK2, sequence (P29597 whole entry): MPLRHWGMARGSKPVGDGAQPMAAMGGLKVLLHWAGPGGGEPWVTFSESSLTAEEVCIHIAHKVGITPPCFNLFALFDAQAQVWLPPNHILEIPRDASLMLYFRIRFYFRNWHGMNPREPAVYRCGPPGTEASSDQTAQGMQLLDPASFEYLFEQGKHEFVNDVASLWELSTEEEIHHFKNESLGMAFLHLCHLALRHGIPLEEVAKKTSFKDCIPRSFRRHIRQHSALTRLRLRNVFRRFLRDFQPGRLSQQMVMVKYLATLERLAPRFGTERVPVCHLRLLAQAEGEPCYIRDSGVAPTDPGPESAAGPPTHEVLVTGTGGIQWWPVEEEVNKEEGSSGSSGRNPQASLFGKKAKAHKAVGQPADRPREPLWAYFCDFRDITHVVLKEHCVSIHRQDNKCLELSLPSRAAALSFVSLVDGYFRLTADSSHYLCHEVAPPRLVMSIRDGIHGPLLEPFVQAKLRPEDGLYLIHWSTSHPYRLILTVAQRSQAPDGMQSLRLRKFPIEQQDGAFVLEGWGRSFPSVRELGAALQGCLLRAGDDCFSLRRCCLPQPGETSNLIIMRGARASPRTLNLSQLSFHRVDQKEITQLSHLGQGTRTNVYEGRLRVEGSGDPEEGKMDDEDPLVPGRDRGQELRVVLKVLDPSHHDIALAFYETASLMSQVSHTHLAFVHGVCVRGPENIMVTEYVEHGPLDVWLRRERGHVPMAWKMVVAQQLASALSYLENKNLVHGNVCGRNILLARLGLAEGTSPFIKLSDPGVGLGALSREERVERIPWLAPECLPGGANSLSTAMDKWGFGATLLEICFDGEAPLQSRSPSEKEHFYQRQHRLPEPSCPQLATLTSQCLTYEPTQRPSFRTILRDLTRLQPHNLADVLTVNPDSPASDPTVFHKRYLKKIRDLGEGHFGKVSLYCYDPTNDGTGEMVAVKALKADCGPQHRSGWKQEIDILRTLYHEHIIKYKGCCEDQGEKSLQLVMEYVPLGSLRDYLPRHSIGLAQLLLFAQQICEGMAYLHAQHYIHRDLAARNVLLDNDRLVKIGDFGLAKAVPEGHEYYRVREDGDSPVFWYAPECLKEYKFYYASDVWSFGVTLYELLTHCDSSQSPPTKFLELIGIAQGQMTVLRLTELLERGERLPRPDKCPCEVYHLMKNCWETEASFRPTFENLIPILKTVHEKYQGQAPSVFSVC

Serine/threonine-protein kinase N1, sequence (Q16512 2-942 limits assumed): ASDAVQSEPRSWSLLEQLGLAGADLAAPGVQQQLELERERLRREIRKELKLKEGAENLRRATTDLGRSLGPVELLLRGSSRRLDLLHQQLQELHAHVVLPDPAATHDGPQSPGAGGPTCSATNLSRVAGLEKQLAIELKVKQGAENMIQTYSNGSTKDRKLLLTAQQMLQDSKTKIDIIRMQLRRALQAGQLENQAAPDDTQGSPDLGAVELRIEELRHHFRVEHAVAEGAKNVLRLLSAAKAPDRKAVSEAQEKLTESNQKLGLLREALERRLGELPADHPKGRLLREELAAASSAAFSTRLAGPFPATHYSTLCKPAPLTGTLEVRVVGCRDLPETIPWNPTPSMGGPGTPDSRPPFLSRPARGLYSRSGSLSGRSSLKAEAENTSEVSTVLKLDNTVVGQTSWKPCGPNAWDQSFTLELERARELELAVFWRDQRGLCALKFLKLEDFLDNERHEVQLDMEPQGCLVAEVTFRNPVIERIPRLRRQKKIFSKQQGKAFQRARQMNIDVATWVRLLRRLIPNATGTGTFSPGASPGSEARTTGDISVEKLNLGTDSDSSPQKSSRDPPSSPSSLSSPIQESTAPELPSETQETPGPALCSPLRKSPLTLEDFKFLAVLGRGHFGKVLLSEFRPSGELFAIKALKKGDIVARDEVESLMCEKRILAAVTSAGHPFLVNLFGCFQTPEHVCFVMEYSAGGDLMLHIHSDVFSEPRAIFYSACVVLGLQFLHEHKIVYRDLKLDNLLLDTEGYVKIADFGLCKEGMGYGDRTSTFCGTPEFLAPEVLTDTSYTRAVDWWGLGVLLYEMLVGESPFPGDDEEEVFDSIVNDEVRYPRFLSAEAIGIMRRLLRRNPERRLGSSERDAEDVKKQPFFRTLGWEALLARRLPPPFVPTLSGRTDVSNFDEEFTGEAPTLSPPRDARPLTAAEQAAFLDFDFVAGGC
Mitogen-activated protein kinase 9, sequence (P45984 whole entry, looked up): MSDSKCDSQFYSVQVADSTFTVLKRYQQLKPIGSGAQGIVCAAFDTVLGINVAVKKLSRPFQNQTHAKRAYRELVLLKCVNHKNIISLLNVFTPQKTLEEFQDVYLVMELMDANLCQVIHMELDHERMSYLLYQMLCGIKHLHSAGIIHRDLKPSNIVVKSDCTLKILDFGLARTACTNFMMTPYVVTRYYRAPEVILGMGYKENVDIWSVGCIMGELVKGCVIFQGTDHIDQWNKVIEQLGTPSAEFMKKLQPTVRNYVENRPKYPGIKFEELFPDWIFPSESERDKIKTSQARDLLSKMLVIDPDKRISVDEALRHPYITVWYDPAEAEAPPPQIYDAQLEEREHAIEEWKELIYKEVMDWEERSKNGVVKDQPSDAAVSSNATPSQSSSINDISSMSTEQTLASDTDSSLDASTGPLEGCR
Bone morphogenetic protein receptor type-1A, sequence (P36894 whole entry): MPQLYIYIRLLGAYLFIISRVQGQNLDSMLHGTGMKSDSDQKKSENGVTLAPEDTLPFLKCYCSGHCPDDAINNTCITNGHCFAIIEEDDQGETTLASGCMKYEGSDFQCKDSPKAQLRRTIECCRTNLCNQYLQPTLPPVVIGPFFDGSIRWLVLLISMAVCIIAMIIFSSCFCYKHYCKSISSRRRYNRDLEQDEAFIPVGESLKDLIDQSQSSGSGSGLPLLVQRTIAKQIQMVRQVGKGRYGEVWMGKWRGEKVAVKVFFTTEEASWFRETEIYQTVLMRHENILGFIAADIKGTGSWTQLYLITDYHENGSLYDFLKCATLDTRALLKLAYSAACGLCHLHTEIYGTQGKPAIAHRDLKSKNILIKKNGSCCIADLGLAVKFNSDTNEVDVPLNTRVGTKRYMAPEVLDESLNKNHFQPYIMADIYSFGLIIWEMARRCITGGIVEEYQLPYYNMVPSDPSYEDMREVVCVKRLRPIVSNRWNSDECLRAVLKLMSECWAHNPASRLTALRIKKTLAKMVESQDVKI
RAC-alpha serine/threonine-protein kinase, sequence (P31749 whole entry): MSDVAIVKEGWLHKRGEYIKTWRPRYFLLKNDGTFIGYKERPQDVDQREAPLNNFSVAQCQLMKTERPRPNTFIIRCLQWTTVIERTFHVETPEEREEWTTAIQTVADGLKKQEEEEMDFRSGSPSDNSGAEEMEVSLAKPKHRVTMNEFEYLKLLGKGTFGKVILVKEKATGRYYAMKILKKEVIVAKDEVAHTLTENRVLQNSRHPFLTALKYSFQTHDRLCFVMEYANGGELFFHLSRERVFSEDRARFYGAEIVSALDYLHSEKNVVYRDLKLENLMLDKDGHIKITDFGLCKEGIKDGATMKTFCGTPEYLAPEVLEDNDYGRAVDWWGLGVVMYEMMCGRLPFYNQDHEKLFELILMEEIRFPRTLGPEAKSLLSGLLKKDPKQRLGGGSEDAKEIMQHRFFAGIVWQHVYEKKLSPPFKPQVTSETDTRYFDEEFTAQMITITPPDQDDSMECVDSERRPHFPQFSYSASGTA
Calcium/calmodulin-dependent protein kinase type II subunit delta (Homo sapiens), sequence (Q13557 whole entry): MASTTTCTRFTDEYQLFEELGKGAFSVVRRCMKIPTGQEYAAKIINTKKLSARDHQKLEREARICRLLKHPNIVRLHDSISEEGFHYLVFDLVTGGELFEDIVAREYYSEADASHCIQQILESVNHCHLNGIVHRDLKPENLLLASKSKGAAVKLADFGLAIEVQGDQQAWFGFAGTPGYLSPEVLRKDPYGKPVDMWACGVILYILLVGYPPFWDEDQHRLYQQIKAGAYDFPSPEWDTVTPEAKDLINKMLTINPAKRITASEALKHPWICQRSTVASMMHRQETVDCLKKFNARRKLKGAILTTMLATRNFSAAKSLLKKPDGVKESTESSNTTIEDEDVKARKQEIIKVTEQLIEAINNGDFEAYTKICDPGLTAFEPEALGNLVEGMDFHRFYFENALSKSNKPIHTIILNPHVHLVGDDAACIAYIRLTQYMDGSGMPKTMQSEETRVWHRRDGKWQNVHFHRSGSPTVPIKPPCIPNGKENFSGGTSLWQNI

Compound: CCN(CC)CCCCNc1ncc2cc(-c3cc(OC)cc(OC)c3)c(NC(=O)NC(C)(C)C)nc2n1
- % of control [1]: 100%

Compound: CN(C)C/C=C/C(=O)Nc1ccc(C(=O)N2CCCC(Nc3ncc(Cl)c(-c4c[nH]c5ccccc45)n3)C2)cc1 (centres undefined)
- % of control [2]: 94%

Compound: O[C@H]1CC[C@H](Nc2ncc3nc(Nc4c(F)cc(F)cc4F)n([C@H]4CCOC4)c3n2)CC1
- % of control [3]: 72%

Now from value to compound, other results behind:

- % of inhibition [4]: -0.3%
- % of inhibition [6]: 3.3%
- % of inhibition [7]: -22.2%
Compound: CC[C@@H]1[C@H](F)C(=O)N[C@@H]1COc1nccc2cc(C(N)=O)c(OC)cc12 [ZIMLOVISERTIB]
- % of inhibition [5]: 8.8%

- % of control ([8]; at 1 µM): 77%
- % of control ([8]; at 5 µM): 46%
Compound: C=CC(=O)Nc1cccc(C(=O)Nc2ccc(Nc3cc(-c4[nH]c(SC)nc4C)ccn3)cc2)c1

From ChEMBL document CHEMBL5465560, “Selectivity Literature for EUbOPEN Chemogenomic Library” (2024)
